The record followed here is ChEMBL document CHEMBL4680168, “The development of a novel transforming growth factor-β (TGF-β) inhibitor that disrupts ligand-receptor interactions” (Eur J Med Chem, 2020).

Activity calls are given as the source filed them. The calls are words filed in the database; no cut-off is given here.

Data set [1] can be described thus: Cytotoxicity against MLEC assessed as reduction in cell viability at 50 uM by MTT assay. To be noted: neovison vison. On the technique in general: Formazan colour is commonly taken as a measure of viable cells.
A short description of data set [2]: Inhibition of TGFbeta signalling pathway in MLEC preincubated for 30 mins followed by TGF-beta1 addition and measured after 18 hrs by Steady-Glo luciferase assay. Also on record: species or system Neovison vison.
Data set [3] concerns A549. The data set can be described thus: Inhibition of TGFBR1/TGFBR2 protein-protein interaction in human A549 cells assessed as inhibition of TGF-beta1-induced Erk1/Erk2 phosphorylation at 40 uM preincubated for 2 hrs followed by TGF-beta1-stimulation and measured after 4 hrs by Western blot analysis. The data set is classed as cell-based. To be noted: filed as antagonist, time 6.0 hrs. For orientation: A western blot detects proteins with antibodies after separation by electrophoresis.

Data set [4] concerns A549. The data set can be described thus: Cytotoxicity against human A549 cells assessed as reduction in cell viability at 20 to 80 uM up to 48 hrs by MTT assay. The data set is classed as cell-based. To be noted: a549, 48 h, dose 20-80 µM.
The test system of data set [5] is A549. The data set can be described thus: Inhibition of TGFBR1/TGFBR2 protein-protein interaction in human A549 cells assessed as reduction in TGF-beta1-induced fibronectin expression preincubated for 2 hrs followed by TGF-beta1 addition and measured after 4 hrs by Western blot analysis. The class given is cell-based. Conditions: filed as antagonist, dose 20-80 µM, time 6.0 hrs.

The test system of data set [6] is A549. The data set can be described thus: Inhibition of TGFBR1/TGFBR2 protein-protein interaction in human A549 cells assessed as inhibition of TGF-beta1-induced Smad2/Smad3 phosphorylation at 40 uM preincubated for 2 hrs followed by TGF-beta1-stimulation and measured after 4 hrs by Western blot analysis. The data set is classed as cell-based. Conditions: filed as antagonist, time 6.0 hrs.

Data set [7] concerns A549. The data set can be described thus: Inhibition of TGFBR1/TGFBR2 protein-protein interaction in human A549 cells assessed as inhibition of TGF-beta1-induced Erk1/Erk2 phosphorylation at 40 uM incubated for 6 hrs by Western blot analysis. Conditions: filed as antagonist. The class given is cell-based.
For data set [8], the system named is A549. The data set can be described thus: Inhibition of TGFBR1/TGFBR2 protein-protein interaction in human A549 cells assessed as reduction in TGF-beta1-induced alpha-SMA expression preincubated for 2 hrs followed by TGF-beta1 addition and measured after 4 hrs by Western blot analysis. The data set is classed as cell-based. To be noted: filed as antagonist, dose 20-80 µM, time 6.0 hrs.

The subject of data set [9] is A549. The data set can be described thus: Inhibition of TGFBR1/TGFBR2 protein-protein interaction in human A549 cells assessed as inhibition of TGF-beta1-induced Akt phosphorylation at 40 uM incubated for 6 hrs by Western blot analysis. The class given is cell-based. Conditions: filed as antagonist.
For data set [10], the system named is A549. The data set can be described thus: Inhibition of TGFBR1/TGFBR2 protein-protein interaction in human A549 cells assessed as reduction in TGF-beta1-induced cell migration expression preincubated for 2 hrs followed by TGF-beta1 addition and measured after 48 hrs by scratch-wound healing assay. The class given is cell-based. Conditions: filed as antagonist, dose 20-80 µM, time 50.0 hrs.

Data set [11] deals with A549. The data set can be described thus: Inhibition of TGFBR1/TGFBR2 protein-protein interaction in human A549 cells assessed as inhibition of TGF-beta1-induced Smad2/Smad3 phosphorylation at 40 uM incubated for 6 hrs by Western blot analysis. The data set is classed as cell-based.
In data set [12] the test system is A549. The data set can be described thus: Inhibition of TGFBR1/TGFBR2 protein-protein interaction in human A549 cells assessed as reduction in TGF-beta1-induced cell migration expression preincubated for 2 hrs followed by TGF-beta1 addition and measured after 24 hrs by crystal violet staining based transwell assay. To be noted: filed as antagonist, dose 20-80 µM, time 26.0 hrs.

Data set [13] in a line: Inhibition of TGFBR1/TGFBR2 protein-protein interaction in MLEC cells assessed as inhibition of TGF-beta1-induced dimer formation preincubated for 30 mins followed by TGF-beta1-stimulation and measured after overnight by pathhunter assay. The data set is classed as cell-based, Neovison vison. Conditions: Neogale vison.
In data set [14] the test system is A549. The data set can be described thus: Inhibition of TGFBR1/TGFBR2 protein-protein interaction in human A549 cells assessed as inhibition of TGF-beta1-induced Akt phosphorylation at 40 uM preincubated for 2 hrs followed by TGF-beta1-stimulation and measured after 4 hrs by Western blot analysis. The class given is cell-based. Conditions: filed as antagonist, time 6.0 hrs.

Data set [15] concerns A549. The data set can be described thus: Inhibition of TGFBR1/TGFBR2 protein-protein interaction in human A549 cells assessed as reduction in TGF-beta1-induced MMP-2 expression preincubated for 2 hrs followed by TGF-beta1 addition and measured after 4 hrs by Western blot analysis. The data set is classed as cell-based. Conditions: filed as antagonist, dose 20-80 µM, time 6.0 hrs.

The test system of data set [16] is A549. The data set can be described thus: Inhibition of TGFBR1/TGFBR2 protein-protein interaction in human A549 cells assessed as reduction in TGF-beta1-induced cell migration expression at 40 to 80 uM preincubated for 2 hrs followed by TGF-beta1 addition and measured after 24 hrs by scratch-wound healing assay. The class given is cell-based. Conditions: filed as antagonist, dose 40-80 µM, time 26.0 hrs.

As for `COC(=O)c1ccc(CNCc2c(C)c(CNCc3ccc(C(=O)OC)cc3)c(C)c(CNCc3ccc(C(=O)OC)cc3)c2C)cc1`, in [1], the Activity entry is reported as “Toxic”.
In the case of `Cc1c(CNc2ccc(C(N)=O)cc2)c(C)c(CNc2ccc(C(N)=O)cc2)c(C)c1CNc1ccc(C(N)=O)cc1`, the Activity result in data set [1] is on record as “Non-Toxic”. Besides, in data set [2], the IC50 result was “Not Active”.
As to `c1ccc(CN2COc3c(c4c(c5c3CN(Cc3ccccc3)CO5)CN(Cc3ccccc3)CO4)C2)cc1`, the IC50 in data set [2] (read-out: IC50) was determined as 18 µM.
On to `COC(=O)c1cccc(NCc2c(C)c(CNc3cccc(C(=O)OC)c3)c(C)c(CNc3cccc(C(=O)OC)c3)c2C)c1`, for which the Activity result in [1] is given as “Non-Toxic”. For the same compound, in data set [2] (read-out: IC50), the IC50 came to 38.1 µM.
Turning to `Cc1c(CNCc2ccccc2)c(C)c(CNCc2ccccc2)c(C)c1CNCc1ccccc1`, the Activity result in [1] was “Toxic”.
Regarding `Cc1c(CNc2ccccc2)c(C)c(CNc2ccccc2)c(C)c1CNc1ccccc1`, the Activity result in [1] is “Non-Toxic”; with A549 [4], “Non-Toxic”; in the data set with A549 [5], “Dose-dependent effect”; with A549 [8] it was “Dose-dependent effect”; in the data set on A549 [10] it was “Dose-dependent effect”; in the data set with A549 [12] it was “Dose-dependent effect”. Moreover, the Activity result with A549 [15] is “Dose-dependent effect”. Moreover, the outcome in the data set with A549 [3], with A549 [6], in the data set on A549 [7], in the data set with A549 [9], in the data set with A549 [14] and in the data set on A549 [16] was Active. Moreover, the result in the data set on A549 [11] was inactive. Further, the IC50 in data set [2] (read-out: IC50) amounted to 5.3 µM; in data set [13], 23.6 µM.
Consider `CC(=O)c1ccc(NCc2c(C)c(CNc3ccc(C(C)=O)cc3)c(C)c(CNc3ccc(C(C)=O)cc3)c2C)cc1`, for which, in data set [1], the Activity entry is “Non-Toxic”. Also, the concentration for half-maximal inhibition (IC50) in data set [2] (read-out: IC50) is over 50 µM.
Take `COC(=O)c1cccc(CNCc2c(C)c(CNCc3cccc(C(=O)OC)c3)c(C)c(CNCc3cccc(C(=O)OC)c3)c2C)c1`: in [1], the Activity result is on record as “Toxic”.
Turning to `CC(=O)c1cccc(NCc2c(C)c(CNc3cccc(C(C)=O)c3)c(C)c(CNc3cccc(C(C)=O)c3)c2C)c1`, the Activity result in data set [1] is “Non-Toxic”. Further, in [2], the half-inhibitory concentration (IC50) entry was “Not Active”.
For `COC(=O)c1ccc(NCc2c(C)c(CNc3ccc(C(=O)OC)cc3)c(C)c(CNc3ccc(C(=O)OC)cc3)c2C)cc1`, the Activity result in data set [1] is on record as “Non-Toxic”. The half-maximal inhibitory concentration (IC50) result in data set [2] is on record as “Not Active”.
Regarding `Cc1c(CNc2cccc(C(N)=O)c2)c(C)c(CNc2cccc(C(N)=O)c2)c(C)c1CNc1cccc(C(N)=O)c1`, the Activity entry in [1] was “Non-Toxic”. The half-maximal inhibitory concentration (IC50) in [2] (read-out: IC50) came to 31.9 µM.

A word on the IC50: it is the concentration that inhibits the measured activity by half.
